Assay results from US20240335462A1, “SULFUR/PHOSPHORUS-CONTAINING ARYL COMPOUND AND APPLICATION THEREOF” (MEDSHINE DISCOVERY INC., priority 2021, published 2024).

Key:
Type in all cases: cell-based
[1] = test system: JAK1/3 signaling pathway (IL-2/pSTAT5); assay: IL-2-induced STAT phosphorylation in human whole blood
Description: (§1) The purpose of this experiment was to detect the inhibitory effect of the compound on the JAK-STAT signaling pathway activated by cytokines in human whole blood or platelet-rich plasma. Fresh human whole blood/platelets were placed in a 96-well plate. The test compound was added and incubated for 1 hour, followed by stimulation with various cytokines. The corresponding STAT phosphorylation levels in different cell populations were analyzed using flow cytometer by means of surface antibody staining and intracellular phosphorylated antibody staining. The experiments using the cytokines IFN-α, […] as stimulants were conducted in human whole blood, whereas the experiment using the cytokine TPO as a stimulant was conducted in platelet-rich plasma.
(§2) • a) Fresh blood from volunteers was collected using EDTA anticoagulant tubes. • b) 90 μL per well of whole blood was rapidly seeded into a 96-well plate and incubated in a cell culture incubator for 15 minutes. […] The plate was centrifuged at 500×g for 8 minutes, and the supernatant was discarded. • g) The cell pellet was washed once with pre-cooled PBS. • h) After discarding the supernatant, anti-human CD3 antibody was added thereto, followed by incubation at room temperature for 40 minutes. • i) The plate was centrifuged at 500×g for 8 minutes, then the supernatant was discarded, and the cells were washed twice with 200 μL of pre-cooled PBS. • j) The cells were resuspended in 200 μL of pre-cooled Perm Buffer III per well and permeabilized on ice for 60 minutes. • k) The plate was centrifuged at 600×g for 8 minutes, then the supernatant was discarded, and the cells were washed twice with pre-cooled PBS. • l) Intracellular staining with anti-pSTAT5 antibody was carried out, followed by incubation at room temperature for 60 minutes. • m) The cells were centrifuged at 600×g for 8 minutes, washed twice with PBS, resuspended in 200 μL of PBS, and detected using the CytoFlex S flow cytometer. • n) Data analysis was conducted using FlowJo and GraphPad Prism 8 software.
(§3) Data were analyzed using FlowJo software. […]

[2] = test system: TYK2 signaling pathway (IFN-α/pSTAT5); assay: IFN-α-induced STAT phosphorylation in human whole blood
Description: as §1, §2, §3

[3] = test system: TYK2 signaling pathway (IFN-α/pSTAT1); assay: IFN-α-induced STAT1 phosphorylation in mouse whole blood; details: CD3+ cells
Description: The purpose of this experiment was to detect the inhibitory effect of the compound on the JAK-STAT signaling pathway activated by IFN-α in mouse whole blood. Fresh mouse whole blood was collected and placed in a 96-well plate. The test compound was added and incubated for 1 hour, followed by stimulation with IFN-α. The corresponding STAT1 phosphorylation level in the CD3^+ cell population was analyzed using flow cytometer by means of surface antibody staining and intracellular phosphorylated antibody staining. The IFN-α-induced STAT1 phosphorylation in mouse whole blood is dependent on TYK2 activity. By detecting the inhibitory activity of the compound on downstream […] phosphorylation, the half maximal inhibitory concentration (IC50) of the compound on TYK2 signaling pathway activity can be determined.
• a) The compound was prepared into a 10 mM solution with dimethyl sulfoxide (DMSO), and diluted in DMSO to a solution with various concentrations, 500 times the final concentration. • b) 5 μL of the diluted compound was transferred to 120 μL of phosphate buffered saline (PBS) containing 0.1% bovine serum albumin (BSA). • c) Positive and negative control groups were set up, with both finally containing 0.2% DMSO.
• a) 67.5 μL of mouse whole blood was added to each well of a 96-well cell culture plate. • b) 3.5 μL of the diluted compound was added thereto and mixed thoroughly. • c) The plate was incubated in a 37° C. incubator for 60 minutes. • d) Mouse interferon recombinant protein was diluted 125-fold in PBS containing 0.1% BSA, and anti-mouse CD3 antibody was diluted 5-fold in PBS containing 0.1% BSA. 5 μL of diluted anti-mouse CD3 antibody and 4 μL of diluted mouse interferon recombinant protein were added to each well. • e) The plate was incubated in a 37° C. incubator for 30 minutes. • f) All cells were transferred to a 96-well deep well plate, and 1 mL of 37° C. pre-warmed 1× lysis/fixation buffer was added thereto. • g) The cells were incubated in the dark at 37° C. for 10 minutes. • h) After centrifugation at 600 g for 5 minutes, the supernatant was discarded, and the cells were washed twice with 1 mL of PBS by centrifugation. • i) 0.4 mL per well of permeabilization buffer was added to the cell pellet and mixed thoroughly. The cells were incubated in the dark at 4° C. for 30 minutes. • j) After centrifugation at 600 g for 5 minutes, the supernatant was discarded, and the cells were washed twice with 1 mL of flow cytometry staining buffer (PBS+0.2% BSA+1 mM EDTA) by centrifugation. • k) Anti-STAT1 antibody was diluted 65-fold in flow cytometry staining buffer, and added to cell-containing wells at 100 μL per well and mixed thoroughly. • l) The cells were incubated at room temperature for 40 minutes. • m) 1 mL per well of flow cytometry staining buffer was added, and the cells were washed twice by centrifugation at 600 g for 5 minutes. • n) The supernatant was discarded, and the cell pellet was resuspended in 300 μL of flow cytometry staining buffer. • o) The samples were loaded for analysis using the Beckman CytoFlex flow cytometer.
Data were analyzed using FlowJo software. Curve fitting was performed and the IC50 was calculated using GraphPad Prism 8 software.

Structure (SMILES)	IC50 [1] [nM]	IC50 [2] [nM]	IC50 [3] [nM]
CNC(=O)c1nnc(NC(=O)C2CC2)cc1Nc1cccc(-c2ncc(S(=N)(=O)C(C)C)cn2)c1OC (single isomer, unassigned) [WX-011A]	11200	23.1	148
CNC(=O)c1cnc(NC(=O)C2CC2)cc1Nc1cccc(-c2ncc(S(=O)(=O)C(C)C)cn2)c1OC [WX-019]	33800	29.7	427
CNC(=O)c1nnc(NC(=O)C2CC2)cc1Nc1cccc(-c2ccc(P(=O)(C3CC3)C3CC3)cn2)c1OC [WX-021]			452
CNC(=O)c1cnc(NC(=O)C2CC2)cc1Nc1cccc(-c2ccc(S(=O)(=O)C(C)C)cn2)c1OC [WX-020]	> 100000	40.3	369
CNC(=O)c1nnc(NC(=O)C2CC2)cc1Nc1cccc(-c2ccc(S(=N)(=O)C(C)C)cn2)c1OC (single isomer, unassigned) [WX-012B]			419
CNC(=O)c1nnc(NC(=O)C2CC2)cc1Nc1cccc(-c2ncc(S(=N)(=O)C(C)C)cn2)c1OC (single isomer, unassigned) [WX-011B]			375
